Test results: patent US20150342190A1, “METHODS FOR LEVERAGING HORMESIS IN PLANT BREEDING AND PLANTS WITH ENHANCED HORMESIS EFFECTS” (PIONEER HI BRED INTERNATIONAL INC, priority 2014, published 2015)
Read-outs that look alike come from different tables or passages of the source.

Tests used:
Type in all cases: in vivo
[1] = tested on: soybean line 93M94 (RR + Als1)
Procedure: (§1) The field trial was conducted as a 7×4 factorial experiment (7 herbicide regimes×4 genotypes) in a split block design with main blocks as herbicide treatments. The trial was conducted at 3 different environments (separate field locations) in Iowa during the summer of 2014. Herbicide control treatment #1 (no sulfonylurea) was replicated 12 times within each of the 3 environments (36 reps total). Herbicide treatments 2 through 7 (Table 7) were replicated 6 times at each of the 3 environments (18 reps total). The additional replication of control treatment #1 was done to increase precision of the treatment mean to which all other treatments (#2 through 7) would be compared.
(§2) It is important to note that both tribenuron and rimsulfuron are more toxic to wild type soybeans than other SU's that could also be tested. But treatment with these specific SU's and application rates was intended to push the limits of SU tolerance so that any response differences between lines could be exposed. The 4 genotypes (Table 6) were randomized within each of the main blocks to facilitate post-emergence application of the various herbicide treatments (Table 7). Each experimental unit was a 2-row soybean plot 15 feet long with 30 inch row spacing and a planting density of 8 seeds per foot of row. Planting was done in mid-May and harvest was done in early October at all 3 environments in 2014.
(§3) Several weeks after planting, the entire field was sprayed post-emergence at the V2 (2-leaf) stage with Roundup PowerMax® at 44 oz/acre (30 oz/acre ai glyphosate) with the addition of ammonium sulfate at a rate of 8 lb per 100 gallons as according to label. Several days later at the V3 (3-leaf) stage, herbicide treatments 2 through 7 (Table 7) were applied according to label directions including the addition of ammonium sulfate at a rate of 8 lb per 100 gallons of spray solution. Randomly embedded control plots of a given soybean genotype facilitated side-by-side visual estimates of herbicide injury. Plots were given visual injury ratings at 14 days after herbicide treatment (14 DAT). Visual injury estimates were assigned to reflect the crop response (a combination of reduced vigor and/or chlorosis) of sprayed rows in relation to the randomly embedded control plots. Injury scores were based on a 0-100% scale, with 0 indicating no crop response and 100 indicating all plants killed.
(§4) At maturity, the seed from each plot was harvested with weight and moisture recorded. Weights were then adjusted to 13% moisture content and reported in units of bushels per acre (bu/a). Yields were also converted to % of control on a “per line” and “per environment” basis. For example, the average yield of SU-treated 93Y92BC3 plots were compared to the average yield of 93Y92BC3 control plots within a given environment and then averaged across environments.

[2] = tested on: soybean line 94Y02 (RR + Als1)
Procedure: as §1, §2, §3, §4

[3] = tested on: soybean line 93Y82BC3 (RR + Als1 + Als2); experiment: 2014 field hormesis trial (Example 4)
Procedure: as §1, §2, §3, §4

[4] = tested on: soybean line 93Y92BC3 (RR + Als1 + Als2); experiment: 2014 field hormesis trial (Example 4)
Procedure: as §1, §2, §3, §4

[5] = tested on: glyphosate tolerant maize inbred line PH19081; experiment: Glyphosate treatment of hydroponically grown maize inbreds, shoot fresh weight (Example 5); details: seedling fresh weight
Procedure: (§5) Seeds from four glyphosate tolerant maize inbred lines (PH1BVW2, PH1PMB1, PHSZB1 and PH19081) were washed in 0.615% NaClO solution for 5 minutes and rinsed with deionized water. They were germinated for one week and then transferred into individual 10″ Deepot tubes (1 seedling/tube), either with foam plugs to suspend the plants in the tubes (Experiments 1 &2) or filled with Turface (Experiments 3 & 4). These tubes were placed into hydroponic growing tanks (100 tubes/tank) with a modified Hoagland's media. At the end of the 2nd week after planting, plants from selected tanks were sprayed with glyphosate solutions equivalent to 1× or 2× of the recommended dosage (1× dosage: 1 quart of liquid Round-Up WeatherMax® per acre, or 21.75 ul/ft2). Separately, three inbred lines without the glyphosate tolerance trait (PH1BVW2, PH1PMB1, and PHSZB1) were treated with the same dosages of glyphosate to confirm the efficacy of the herbicide. The inbred lines without the glyphosate tolerance trait were killed by both glyphosate treatments, as expected. Four weeks after germination, plants were harvested and shoot fresh weight was recorded.

[6] = tested on: glyphosate tolerant maize inbred line PH1BVW2; experiment: as above; details: seedling fresh weight
Procedure: as §5

[7] = tested on: inbred lines without the glyphosate tolerance trait (PH1BVW2, PH1PMB1, and PHSZB1); experiment: Glyphosate efficacy check on non-tolerant maize inbreds (Example 5); details: both glyphosate treatments (1× and 2× of the recommended dosage), spray
Procedure: as §5

[8] = tested on: soybean line BC44883270 (ALS1 + ALS2); experiment: Field yield trial with herbicide treatments (Example 2); details: full herbicide concentration (Tribenuron 1.0X) at V3
Procedure: (§6) Table 2 describes the soy lines used and whether ALS1, ALS2, or both herbicide resistant genes were present in each.
(§7) Each of the lines in Table 2 was grown at a density of 150,000 seeds/acre (˜8 seeds per foot of row) in two 30 inch rows. Each line was divided into four groups, and each group of each line was subjected to one of the four herbicide treatments listed in Table 3.
(§8) Group 1 of each line was the control group that received no herbicide treatment. Groups 2, 3, and 4 of each line were treated with different concentrations of herbicide corresponding to approximately ¼ strength, ½ strength, and full strength (needed for weed control) respectively of the recommended concentrations of the herbicide DuPont™ Express® w/TotalSol®, which includes Tribenuron, a sulfonylurea herbicide. The herbicide treatment spray solution was prepared according to the label instructions with a non-ionic surfactant and an adjuvant (ammonium sulfate). The herbicide was applied to Groups 2, 3, and 4 during the V3 growth phase, the plants were grown to maturity, and yield measurements were made. Each genotype×herbicide treatment group was replicated six times.

[9] = tested on: soybean line BC44883300 (ALS2); experiment: as above; details: full herbicide concentration (Tribenuron 1.0X) at V3
Procedure: as §6, §7, §8

[10] = tested on: soybean line BC44883336 (ALS1 + ALS2); experiment: as above; details: full herbicide concentration (Tribenuron 1.0X) at V3
Procedure: as §6, §7, §8

[11] = tested on: soybean line BC44883269 (ALS2); experiment: as above; details: full herbicide concentration (Tribenuron 1.0X) at V3
Procedure: as §6, §7, §8

soybean lines of Table 2 = experiment: Field yield trial with herbicide treatments (Example 2), all lines; details: 1/4 concentration herbicide application (Tribenuron 0.25X) at V3
Procedure: as §6, §7, §8

[12] = 0.5x rate at V3, 3 environments
[13] = herbicide treatments 2 and 3 (tribenuron 0.5x and 1x), 14 DAT

For `CCS(=O)(=O)c1cccnc1S(=O)(=O)NC(=O)Nc1nc(OC)cc(OC)n1` [rimsulfuron], the “Yield as % of control” value ([1]; 0.5x rate at V3) was 76%, the Yield effect ([1]; 0.5x rate at V3) was “negative” and the “Yield (bu/a)” value [1, 12] was 36.7 bu/a. For the same compound, the “Yield as % of control” value ([1]; 1x rate at V3) was 51%, the Yield effect ([1]; 1x rate at V3) was “negative” and the “Yield (bu/a)” value ([1]; 1x rate at V3, 3 environments) was 24.7 bu/a. For the same compound, the “Yield as % of control” value ([1]; 2x rate at V3) was 41%, the Yield effect ([1]; 2x rate at V3) was “negative” and the “Yield (bu/a)” value ([1]; 2x rate at V3, 3 environments) was 19.6 bu/a. The “Yield as % of control” value ([2]; 0.5x rate at V3) was 54%, the Yield effect ([2]; 0.5x rate at V3) was “negative” and the “Yield (bu/a)” value [2, 12] was 31.7 bu/a. The “Yield as % of control” value ([2]; 1x rate at V3) was 33%, the Yield effect ([2]; 1x rate at V3) was “negative” and the “Yield (bu/a)” value ([2]; 1x rate at V3, 3 environments) was 19.5 bu/a. For the same compound, the “Yield as % of control” value ([2]; 2x rate at V3) was 21%, the Yield effect ([2]; 2x rate at V3) was “negative” and the “Yield (bu/a)” value ([2]; 2x rate at V3, 3 environments) was 12.2 bu/a. The “Yield as % of control” value ([3]; 0.5x rate at V3) was 99%, the Yield effect ([3]; 0.5x rate at V3) was “neutral” and the “Yield (bu/a)” value [3, 12] was 60.1 bu/a. The “Yield as % of control” value ([3]; 1x rate at V3) was 93%, the Yield effect ([3]; 1x rate at V3) was “negative” and the “Yield (bu/a)” value ([3]; 1x rate at V3, 3 environments) was 56.2 bu/a. For the same compound, the “Yield as % of control” value ([3]; 2x rate at V3) was 81%, the Yield effect ([3]; 2x rate at V3) was “negative” and the “Yield (bu/a)” value ([3]; 2x rate at V3, 3 environments) was 48.7 bu/a. The “Yield as % of control” value ([4]; 0.5x rate at V3) was 107%, the Yield effect ([4]; 0.5x rate at V3) was “Positive” and the “Yield (bu/a)” value [4, 12] was 59.8 bu/a. For the same compound, the “Yield as % of control” value ([4]; 1x rate at V3) was 108%, the Yield effect ([4]; 1x rate at V3) was “Positive” and the “Yield (bu/a)” value ([4]; 1x rate at V3, 3 environments) was 60.5 bu/a. For the same compound, the “Yield as % of control” value ([4]; 2x rate at V3) was 89%, the Yield effect ([4]; 2x rate at V3) was “negative” and the “Yield (bu/a)” value ([4]; 2x rate at V3, 3 environments) was 49.9 bu/a.

With `O=C(O)CNCP(=O)(O)O` [glyphosate] the “hormesis effect upon application of herbicide” value [5] was “positive hormesis effect”, the “hormesis effect upon application of herbicide” value [6] was “positive hormesis effect” and the “efficacy of the herbicide on non-tolerant lines” value [7] was “killed”.

For `COc1nc(C)nc(N(C)C(=O)NS(=O)(=O)c2ccccc2C(=O)O)n1` [tribenuron], the “Yield as % of control” value ([1]; 0.5x rate at V3) was 98%, the Yield effect ([1]; 0.5x rate at V3) was “neutral” and the “Yield (bu/a)” value [1, 12] was 47.5 bu/a. For the same compound, the “Visual injury 14 DAT” value ([1]; 0.5x rate at V3, 14 DAT) was 10%, the “Yield as % of control” value ([1]; 1x rate at V3) was 101% and the Yield effect ([1]; 1x rate at V3) was “neutral”. For the same compound, the “Yield (bu/a)” value ([1]; 1x rate at V3, 3 environments) was 48.9 bu/a, the “Visual injury 14 DAT” value ([1]; 1x rate at V3, 14 DAT) was 18% and the “Yield as % of control” value ([1]; 2x rate at V3) was 87%. The Yield effect ([1]; 2x rate at V3) was “negative”, the “Yield (bu/a)” value ([1]; 2x rate at V3, 3 environments) was 41.9 bu/a and the “Visual injury 14 DAT” value ([1]; 2x rate at V3, 14 DAT) was 39%. For the same compound, the “Yield as % of control” value ([2]; 0.5x rate at V3) was 99%, the Yield effect ([2]; 0.5x rate at V3) was “neutral” and the “Yield (bu/a)” value [2, 12] was 58.8 bu/a. The “Visual injury 14 DAT” value ([2]; 0.5x rate at V3, 14 DAT) was 9%, the “Yield as % of control” value ([2]; 1x rate at V3) was 98% and the Yield effect ([2]; 1x rate at V3) was “neutral”. For the same compound, the “Yield (bu/a)” value ([2]; 1x rate at V3, 3 environments) was 58.2 bu/a, the “Visual injury 14 DAT” value ([2]; 1x rate at V3, 14 DAT) was 19% and the “Yield as % of control” value ([2]; 2x rate at V3) was 82%. For the same compound, the Yield effect ([2]; 2x rate at V3) was “negative”, the “Yield (bu/a)” value ([2]; 2x rate at V3, 3 environments) was 48.6 bu/a and the “Visual injury 14 DAT” value ([2]; 2x rate at V3, 14 DAT) was 39%. The “yield improvement over the control” value [8] was “about 4.5%”, the yield decrease [9] was about 19% and the “yield improvement over the control” value [10] was about 13%. The yield decrease [11] was “about 32%”, the “yield relative to the control (hormesis effect)” value (soybean lines of Table 2) was “relative yield increase” and the “Yield as % of control” value ([3]; 0.5x rate at V3) was 101%. For the same compound, the Yield effect ([3]; 0.5x rate at V3) was “neutral”, the “Yield (bu/a)” value [3, 12] was 61.1 bu/a and the “Visual injury 14 DAT” value ([3]; 0.5x rate at V3, 14 DAT) was 3%. The “Yield as % of control” value ([3]; 1x rate at V3) was 101%, the Yield effect ([3]; 1x rate at V3) was “neutral” and the “Yield (bu/a)” value ([3]; 1x rate at V3, 3 environments) was 61.3 bu/a. The “Visual injury 14 DAT” value ([3]; 1x rate at V3, 14 DAT) was 6%, the “Yield as % of control” value ([3]; 2x rate at V3) was 102% and the Yield effect ([3]; 2x rate at V3) was “neutral”. The “Yield (bu/a)” value ([3]; 2x rate at V3, 3 environments) was 61.4 bu/a, the “Visual injury 14 DAT” value ([3]; 2x rate at V3, 14 DAT) was 16% and the average visual injury [3, 13] was at most 6%. The “Yield as % of control” value ([4]; 0.5x rate at V3) was 106%, the Yield effect ([4]; 0.5x rate at V3) was “Positive” and the “Yield (bu/a)” value [4, 12] was 59.4 bu/a. For the same compound, the “Visual injury 14 DAT” value ([4]; 0.5x rate at V3, 14 DAT) was 2%, the “Yield as % of control” value ([4]; 1x rate at V3) was 104% and the Yield effect ([4]; 1x rate at V3) was “Positive”. For the same compound, the “Yield (bu/a)” value ([4]; 1x rate at V3, 3 environments) was 58.0 bu/a, the “Visual injury 14 DAT” value ([4]; 1x rate at V3, 14 DAT) was 5% and the “Yield as % of control” value ([4]; 2x rate at V3) was 108%. For the same compound, the Yield effect ([4]; 2x rate at V3) was “Positive”, the “Yield (bu/a)” value ([4]; 2x rate at V3, 3 environments) was 60.0 bu/a and the “Visual injury 14 DAT” value ([4]; 2x rate at V3, 14 DAT) was 14%. It also gave an average visual injury [4, 13] of at most 6%.
